# Laboratory results: ChEMBL document CHEMBL5108037, “Cyclic Peptide Screening Methods for Preclinical Drug Discovery” (J Med Chem, 2022)
# pIC50, pKd: −log10 of the molar value. Starred links: 1 amine or outer side, 2 acyl side, 3 side chain; linkers in the order of their positions; H or OH if unused. Positions of bridges follow the written chain, without caps; N, C: chain ends. Non-standard residues stand in square brackets, D forms with d. Residues, ends and D or L forms follow the SMILES beside them. *: point of attachment. X2 = CC1CCN(C[C@H](N[*:1])C(=O)[*:2])CC1; X3 = NC(=O)CNC[C@H](CSCC(=O)[*:1])N[*:2]; mXylylene = c1cc(C[*:1])cc(C[*:2])c1; X1 = O=C(CN(CC[*:3])[*:1])[*:2]; CH2CH2 = C(C[*:2])[*:1]; Dap = NC[C@H](N)C(=O)O; BrAc = O=C(CBr)*; βAla = NCCC(=O)O; Mpa = O=C(O)CCS
# Experiments:
# TCF4-CTNNB1 complex [1] = biological target: T1, TCF4-CTNNB1 complex (Homo sapiens, UniProt P35222); test: Inhibition of FITC-labeled Tcf4 (unknown origin) / full length beta-catenin (1 to 781 residues) (unknown origin) protein-protein interaction measured after 1 hr by fluorescence polarization assay; format: protein-complex assay
# T1 sequence (P35222 whole entry): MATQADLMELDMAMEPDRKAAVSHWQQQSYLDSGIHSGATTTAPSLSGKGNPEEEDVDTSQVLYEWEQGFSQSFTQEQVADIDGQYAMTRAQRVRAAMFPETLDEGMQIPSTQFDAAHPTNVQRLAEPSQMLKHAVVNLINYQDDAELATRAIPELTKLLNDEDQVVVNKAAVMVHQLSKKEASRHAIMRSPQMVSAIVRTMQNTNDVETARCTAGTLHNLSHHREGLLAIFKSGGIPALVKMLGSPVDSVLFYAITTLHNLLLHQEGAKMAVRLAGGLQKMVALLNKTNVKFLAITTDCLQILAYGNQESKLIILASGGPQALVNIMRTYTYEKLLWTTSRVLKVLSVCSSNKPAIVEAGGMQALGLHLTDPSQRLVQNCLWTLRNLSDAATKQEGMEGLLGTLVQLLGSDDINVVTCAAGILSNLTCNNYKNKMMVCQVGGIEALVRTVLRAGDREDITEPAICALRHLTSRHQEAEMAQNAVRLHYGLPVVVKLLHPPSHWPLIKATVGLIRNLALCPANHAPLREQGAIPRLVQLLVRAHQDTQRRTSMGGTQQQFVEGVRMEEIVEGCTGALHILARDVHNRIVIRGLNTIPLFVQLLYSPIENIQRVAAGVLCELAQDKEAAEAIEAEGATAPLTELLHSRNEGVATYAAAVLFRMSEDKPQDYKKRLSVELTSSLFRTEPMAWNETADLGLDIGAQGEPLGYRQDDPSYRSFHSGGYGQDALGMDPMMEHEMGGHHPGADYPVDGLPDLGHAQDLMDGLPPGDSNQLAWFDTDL
# T1 sequence (P15884 whole entry): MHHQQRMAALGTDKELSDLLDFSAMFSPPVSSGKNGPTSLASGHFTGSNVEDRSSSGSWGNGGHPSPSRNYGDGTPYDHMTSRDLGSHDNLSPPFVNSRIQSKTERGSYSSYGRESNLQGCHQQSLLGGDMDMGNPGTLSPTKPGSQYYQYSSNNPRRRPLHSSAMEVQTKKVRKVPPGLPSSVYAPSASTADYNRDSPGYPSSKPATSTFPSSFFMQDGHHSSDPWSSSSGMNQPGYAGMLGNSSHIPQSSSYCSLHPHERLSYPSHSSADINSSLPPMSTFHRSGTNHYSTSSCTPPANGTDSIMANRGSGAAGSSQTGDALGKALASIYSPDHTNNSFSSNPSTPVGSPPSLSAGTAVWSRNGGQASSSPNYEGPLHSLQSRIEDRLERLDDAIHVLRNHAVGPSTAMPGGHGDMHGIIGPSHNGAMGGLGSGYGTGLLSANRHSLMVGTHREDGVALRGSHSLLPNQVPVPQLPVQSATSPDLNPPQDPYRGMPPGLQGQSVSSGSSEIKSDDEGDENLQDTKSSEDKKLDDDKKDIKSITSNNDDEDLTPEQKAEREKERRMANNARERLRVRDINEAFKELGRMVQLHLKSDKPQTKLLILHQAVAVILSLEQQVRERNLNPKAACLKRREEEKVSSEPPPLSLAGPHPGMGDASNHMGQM
# [2] = Antiproliferative activity against human LNCaP-abl cells assessed as cell growth inhibition measured after 24 hrs by CellTiter-Glo assay; format: functional, cell-based
# [3] = Antiproliferative activity against human LNCaP-95 cells assessed as cell growth inhibition measured after 24 hrs by CellTiter-Glo assay; format: functional, cell-based; settings: LNCaP-95, 24 h
# [4] = Inhibition of FphF (unknown origin) using Cy5-ENLYFQGK(QSY21)-NH2 as substrate incubated for 1 hr by fluorescence based analysis; design: species or system Homo sapiens
# TCF4-CTNNB1 complex [5] = biological target: T1, TCF4-CTNNB1 complex; test: Binding affinity to FITC-labeled Tcf4 (unknown origin) /6His-tagged beta-catenin (135 to 668 residues) (unknown origin) protein-protein interaction assessed as inhibition constant by fluorescence polarization assay; format: protein-complex assay
# GTPase KRas = GTPase KRas (Homo sapiens, UniProt P01116, G12D); test: Inhibition of human His-Avi-TEV-tagged KRAS G12D mutant expressed in Escherichia coli BL21(DE3) by TR-FRET assay
# GTPase KRas, sequence (P01116 whole entry G12D): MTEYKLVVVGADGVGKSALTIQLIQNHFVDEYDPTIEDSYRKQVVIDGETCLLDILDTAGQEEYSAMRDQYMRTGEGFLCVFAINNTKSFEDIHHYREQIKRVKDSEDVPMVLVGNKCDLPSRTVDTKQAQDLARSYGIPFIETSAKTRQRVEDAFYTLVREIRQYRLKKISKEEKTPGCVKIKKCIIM
# [6] = Inhibition of NDM-1 (unknown origin); design: species or system Bacteria
# Sonic hedgehog protein = Sonic hedgehog protein (Homo sapiens, UniProt Q15465); test: Binding affinity to SHH (unknown origin) assessed as dissociation constant by calorimetric analysis
# Sonic hedgehog protein, sequence (Q15465 24-197 limits assumed): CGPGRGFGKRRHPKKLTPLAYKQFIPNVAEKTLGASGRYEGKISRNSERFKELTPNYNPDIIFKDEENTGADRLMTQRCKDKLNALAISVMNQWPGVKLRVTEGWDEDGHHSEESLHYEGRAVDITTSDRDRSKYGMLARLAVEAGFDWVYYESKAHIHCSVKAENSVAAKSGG
smiles,measurement,setting,value
CC(C)C[C@@H]1NC(=O)[C@@H]2CSCc3cccc(c3)CSC[C@H](NC(=O)[C@H](CC(N)=O)NC(=O)[C@H](CCCNC(=N)N)NC(=O)[C@H]([C@@H](C)O)NC(=O)[C@H](C(C)C)NC(=O)CCNC(=O)CCNC(=O)[C@H](Cc3ccccc3)NC(=O)[C@H](C(C)C)NC(=O)[C@H](CC(C)C)NC1=O)C(=O)N[C@@H](C(C)C)C(=O)N1CCC[C@H]1C(=O)N1CCC[C@H]1C(=O)N[C@@H](CC(=O)O)C(=O)N2 (cyclo(CLLVF[βAla][βAla]VTRNCVPPD); linker 1-12 via mXylylene),pIC50,TCF4-CTNNB1 complex [1],5.32
COc1ccc([C@H](C)N2CC(=O)N(CCCOC(C)C)CC(=O)N(c3cc(OC)cc(OC)c3)CC(=O)N(CCc3ccccc3Oc3ccccc3)CC(=O)N[C@H](C)C(=O)N([C@@H](C)c3ccc(OC)cc3)CC2=O)cc1,pIC50,[2],6.71
same,pIC50,[3],6.11
CSCC[C@@H]1NC(=O)[C@H](Cc2c[nH]c3ccccc23)NC(=O)[C@H](CCCNC(=N)N)NC(=O)[C@H](Cc2c[nH]c3ccccc23)NC(=O)[C@H](CCCNC(=N)N)NC(=O)[C@H](C)NC(=O)[C@@H](NC(=O)[C@@H](N)C(C)C)CSC/C(=N/OCC(=O)CP(=O)(Oc2ccccc2)Oc2ccccc2)CSC[C@@H](C(=O)NCC(=O)O)NC(=O)[C@@H]2CCCN2C1=O,pIC50,[4],6.19
CC[C@H](C)[C@@H]1NC(=O)[C@H](CNC(=O)CBr)NC(=O)[C@H](CC(=O)O)NC(=O)[C@H](CC(=O)O)NC(=O)CNC(=O)[C@@H]2CCCN2C(=O)[C@H](C)NC(=O)[C@H](CCCNC(=N)N)NC(=O)[C@H]([C@@H](C)O)NC(=O)[C@H](CCC(N)=O)NC(=O)[C@H]([C@@H](C)O)NC(=O)CCSCCN(CC(N)=O)C(=O)[C@H](Cc2ccccc2)NC(=O)[C@H]([C@@H](C)O)NC1=O ([Mpa]TQTRAPGDD[Dap](BrAc)ITF[X1]-NH2; thioether 1-15),pIC50,TCF4-CTNNB1 complex [5],5.40
CC1CCN(C[C@@H]2NC(=O)[C@H](CCCNC(=N)N)NC(=O)[C@H](Cc3ccccc3)NC(=O)[C@H](CC(N)=O)NC(=O)[C@H](CCCNC(=N)N)NC(=O)[C@H](Cc3ccccc3)NC(=O)[C@H](CC(N)=O)NC(=O)[C@H](C(C)C)NC(=O)[C@H](Cc3ccccc3)NC(=O)[C@H](Cc3ccc(O)cc3)NC(=O)CSC[C@@H](CNCC(N)=O)NC(=O)[C@H](CCCNC(=N)N)NC(=O)[C@H](Cc3ccccc3)NC2=O)CC1 (YFVNFRNFR[X2]FR; linker N-C via X3),pIC50,GTPase KRas,6.10
CC[C@H](C)[C@@H]1NC(=O)[C@@H]2CCCN2C(=O)[C@H](CC(=O)O)NC(=O)[C@H](CCCNC(=N)N)NC(=O)[C@H](CCCNC(=N)N)NC(=O)[C@H](CC(C)C)NC(=O)[C@H](CS)NC(=O)[C@@H]2CCCN2C1=O (cyclo(CLRRDPIP)),pIC50,[6],5.92
CSCC[C@@H]1NC(=O)[C@H](C)NC(=O)[C@H](CCC(=O)O)NC(=O)[C@@H](NC(=O)[C@@H]2CCCN2C(=O)[C@H](CO)NC(=O)[C@H](CO)NC(=O)CN)Cc2ccc(cc2)OCCSC[C@@H](C(=O)N[C@H](C(=O)N[C@@H](CC(=O)O)C(=O)N[C@H](C(=O)NCC(=O)O)[C@@H](C)O)[C@@H](C)O)NC(=O)[C@H](CCSC)NC(=O)[C@H](CC(=O)O)NC1=O (H-GSSPYEAMDMCTDTG-OH; linker 5-11 via CH2CH2),pKd,Sonic hedgehog protein,6.26
